According to the NIST ThermoML archive (doi:10.1021/je900596d):

Conditions: for mass density: Fluid (supercritical or subcritical phases), Vibrating tube method; for vapor or sublimation pressure: Liquid, Closed cell (Static) method

FC(F)=C(F)C(F)(F)F [hexafluoropropene]
Conditions	mass density [kg/m3]
358.16 K, 1948.8 kPa	133.66
358.16 K, 1982.5 kPa	137.05
358.16 K, 2016.7 kPa	140.6
358.16 K, 2051.6 kPa	144.28
358.16 K, 2085.7 kPa	147.98
358.16 K, 2118.7 kPa	151.7
358.16 K, 2152.9 kPa	155.54
358.16 K, 2185.6 kPa	159.34
358.16 K, 2250.5 kPa	167.24
358.16 K, 2283.4 kPa	171.42
358.16 K, 2316.3 kPa	175.71
358.16 K, 2349.2 kPa	180.05
358.16 K, 2381.8 kPa	184.6
358.16 K, 2414.3 kPa	189.16
358.16 K, 2462.8 kPa	196.45
358.16 K, 2529.2 kPa	206.94
358.16 K, 2562.6 kPa	212.61
358.16 K, 2581.2 kPa	215.74
358.16 K, 2616.7 kPa	222.24
358.16 K, 2635.2 kPa	225.67
358.16 K, 2669.9 kPa	232.45
358.16 K, 2703.7 kPa	239.44
358.16 K, 2738.3 kPa	247.03
358.16 K, 2771.6 kPa	254.87
358.16 K, 2806.3 kPa	263.68
358.16 K, 2839.2 kPa	272.73
358.16 K, 2872.4 kPa	282.77
358.16 K, 2905.9 kPa	293.88
358.16 K, 2939.1 kPa	305.79
358.16 K, 2972 kPa	319.7
358.16 K, 3000.1 kPa	333.22
358.16 K, 3003 kPa	334.75
358.16 K, 3005.7 kPa	336.23
358.16 K, 3008.2 kPa	337.55
358.16 K, 3010.9 kPa	338.92
358.16 K, 3013.2 kPa	340.27
358.16 K, 3015.5 kPa	341.83
358.16 K, 3017.6 kPa	343.29
358.16 K, 3019.8 kPa	344.7
358.16 K, 3022.4 kPa	346.21
358.16 K, 3025.8 kPa	348.17
358.16 K, 3027.8 kPa	349.31
358.16 K, 3031.6 kPa	351.6
358.16 K, 3035.5 kPa	354.08
358.16 K, 3037.5 kPa	355.4
358.16 K, 3041.3 kPa	357.97
358.16 K, 3045.1 kPa	360.72
358.16 K, 3047.1 kPa	362.14
358.16 K, 3050.9 kPa	364.96
358.16 K, 3054.3 kPa	367.81
358.16 K, 3057.8 kPa	370.74
358.16 K, 3061.2 kPa	373.72
358.16 K, 3064.5 kPa	376.75
358.16 K, 3067.7 kPa	379.88
358.16 K, 3071 kPa	383.12
358.16 K, 3074 kPa	386.4
358.16 K, 3077 kPa	389.78
362.9 K, 6.3 kPa	0.34
362.9 K, 8.4 kPa	0.44
362.9 K, 10.7 kPa	0.55
362.9 K, 15.1 kPa	0.65
362.9 K, 17.2 kPa	0.88
362.9 K, 20.8 kPa	1.04
362.9 K, 23 kPa	1.15
362.9 K, 25.2 kPa	1.27
362.9 K, 31.8 kPa	1.53
362.9 K, 34 kPa	1.65
362.9 K, 37.4 kPa	1.78
362.9 K, 40.2 kPa	2
362.9 K, 42.3 kPa	2.22
362.9 K, 47.8 kPa	2.29
362.9 K, 57.7 kPa	2.87
362.9 K, 64.3 kPa	3.19
362.9 K, 75.1 kPa	3.75
362.9 K, 81.7 kPa	4.07
362.9 K, 88 kPa	4.26
362.9 K, 96.7 kPa	4.85
362.9 K, 103.1 kPa	5.2
362.9 K, 109.4 kPa	5.38
362.9 K, 122.1 kPa	6.16
362.9 K, 128.4 kPa	6.44
362.9 K, 134.6 kPa	6.83
362.9 K, 140.8 kPa	7.19
362.9 K, 146.9 kPa	7.41
362.9 K, 153.1 kPa	7.6
362.9 K, 162.6 kPa	8.2
362.9 K, 172.6 kPa	8.83
362.9 K, 183.5 kPa	9.3
362.9 K, 191.9 kPa	9.53
362.9 K, 205.9 kPa	10.23
362.9 K, 217.1 kPa	10.89
362.9 K, 239.3 kPa	12.29
362.9 K, 250.5 kPa	12.86
362.9 K, 261.7 kPa	13.26
362.9 K, 272.8 kPa	13.91
362.9 K, 284 kPa	14.66
362.9 K, 294.9 kPa	14.96
362.9 K, 305.9 kPa	15.65
362.9 K, 322.3 kPa	16.67
362.9 K, 338.5 kPa	17.36
362.9 K, 354.9 kPa	18.21
362.9 K, 370.9 kPa	19.21
362.9 K, 386.8 kPa	19.93
362.9 K, 402.6 kPa	20.85
362.9 K, 418.2 kPa	21.77
362.9 K, 449.3 kPa	23.6
362.9 K, 485.1 kPa	25.57
362.9 K, 500.3 kPa	26.4
362.9 K, 520.6 kPa	27.39
362.9 K, 540.4 kPa	28.38
362.9 K, 560.3 kPa	29.54
362.9 K, 580 kPa	30.72
362.9 K, 599.7 kPa	31.79
362.9 K, 619.3 kPa	32.97
362.9 K, 638.8 kPa	34.15
362.9 K, 658.1 kPa	35.19
362.9 K, 677.4 kPa	36.24
362.9 K, 696.6 kPa	37.68
362.9 K, 715.6 kPa	38.68
362.9 K, 753.3 kPa	40.79
362.9 K, 772.1 kPa	41.86
362.9 K, 790.7 kPa	43.17
362.9 K, 809.2 kPa	44.11
362.9 K, 827.4 kPa	45.36
362.9 K, 845.6 kPa	46.55
362.9 K, 863.7 kPa	47.41
362.9 K, 881.6 kPa	48.62
362.9 K, 899.5 kPa	49.68
362.9 K, 917.1 kPa	50.72
362.9 K, 934.7 kPa	52.13
362.9 K, 952.2 kPa	53.09
362.9 K, 969.4 kPa	54.03

Conditions	vapor or sublimation pressure [kPa]
358.26 K	3095.1
358.76 K	3128.1
